Data as given in ChEMBL document CHEMBL1201862, “PubChem BioAssay data set” (2004).
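Where inhibition never reached the appropriate level, the endpoint shown equals the highest concentration tested. Otherwise, values were interpolated linearly from a five-concentration, 48-hour dose response in 96-well plates. At the GI50, growth is halved.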 The source made the active and inactive calls. No stated cut-off is given here; in the data, active = GI50 up to about 1.1 µM and inactive = higher.

Columns and labels:
Assay in all cases: NCI anticancer screen, dose series, 48 h
NCI-H226 = tested on: NCI-H226
RPMI-8226 = tested on: RPMI-8226
HCC 2998 = tested on: HCC 2998
HOP-62 = tested on: HOP-62
OVCAR-8 = tested on: OVCAR-8
SW-620 = tested on: SW-620
NCI-H23 = tested on: NCI-H23
UO-31 = tested on: UO-31
COLO 205 = tested on: COLO 205
HL-60 = tested on: HL-60
NCI-H522 = tested on: NCI-H522
LOX IMVI = tested on: LOX IMVI
ACHN = tested on: ACHN
SF-539 = tested on: SF-539
SK-MEL-2 = tested on: SK-MEL-2

Measured: GI50

Cc1cc(O)c2c(c1)OC1(C)CCC3C(C)(C)CCCC34COC2C14 (configuration not stated)
inactive: NCI-H226 14 µM | RPMI-8226 > 10 µM | HCC 2998 14.7 µM | HOP-62 14.1 µM | OVCAR-8 16.7 µM | SW-620 15.5 µM | NCI-H23 17.6 µM | UO-31 16.7 µM | COLO 205 14.4 µM | HL-60 16.6 µM | NCI-H522 17.6 µM | LOX IMVI 14 µM | ACHN 12.7 µM | SF-539 6.43 µM

CCC(C)C(N)C(=O)NC(CC(N)=O)C(=O)NC(CC(C)C)C(=O)NC(CCCCN)C(=O)NC(C)C(=O)NC(CC(C)C)C(=O)NC(C)C(=O)NC(C)C(=O)NC(CC(C)C)C(=O)NC(C)C(=O)NC(CCCCN)C(=O)NC(CCCCN)C(=O)NC(C(=O)NC(CC(C)C)C(N)=O)C(C)CC (configuration not stated)
inactive: NCI-H226 14.5 µM | HCC 2998 > 42.2 µM | SK-MEL-2 19.4 µM | HOP-62 2.55 µM | OVCAR-8 17.5 µM | SW-620 20.4 µM | NCI-H23 14.7 µM | UO-31 18.1 µM | COLO 205 16.1 µM | HL-60 2.74 µM | NCI-H522 16.7 µM | LOX IMVI 18.3 µM | ACHN 14 µM | SF-539 6.08 µM

COc1ccc(-c2cc(-c3cc(C)ccc3O)nc(O)n2)cc1
inactive: NCI-H226 > 100 µM | RPMI-8226 > 100 µM | HCC 2998 > 100 µM | HOP-62 22.6 µM | OVCAR-8 74.8 µM | SW-620 > 100 µM | NCI-H23 > 100 µM | UO-31 76.6 µM | COLO 205 > 100 µM | HL-60 > 100 µM | NCI-H522 24.6 µM | LOX IMVI > 100 µM | ACHN 42.8 µM | SF-539 30.1 µM

CC1=C(C)C(=O)C2=C(OCCCO2)C1=O
inactive: NCI-H226 > 10 µM | RPMI-8226 16.5 µM | HCC 2998 59.4 µM | SK-MEL-2 > 10 µM | HOP-62 > 100 µM | OVCAR-8 18.7 µM | SW-620 17 µM | NCI-H23 > 10 µM | UO-31 16.5 µM | COLO 205 34.2 µM | HL-60 3.61 µM | NCI-H522 18 µM | ACHN 18.4 µM | SF-539 > 10 µM

Cc1cc2nc3c(C(OC4OC(CO)C(O)C(O)C4O)C(O)CO)nn(-c4ccccc4)c3nc2cc1C (configuration not stated)
inactive: RPMI-8226 > 100 µM | HCC 2998 > 100 µM | HOP-62 > 100 µM | OVCAR-8 > 100 µM | NCI-H23 > 100 µM | UO-31 > 100 µM | NCI-H522 > 100 µM | LOX IMVI > 100 µM | ACHN > 100 µM | SF-539 > 100 µM

Cc1ccnc(NS(=O)(=O)c2ccc(NC3=CC(=O)C(=O)c4ccccc43)cc2)n1
inactive: NCI-H226 > 100 µM | HCC 2998 > 100 µM | SK-MEL-2 > 100 µM | HOP-62 > 100 µM | OVCAR-8 > 100 µM | SW-620 > 100 µM | NCI-H23 > 100 µM | UO-31 > 100 µM | COLO 205 > 100 µM | HL-60 > 100 µM | NCI-H522 > 100 µM | LOX IMVI > 100 µM | ACHN > 100 µM | SF-539 > 100 µM

COc1ccc(NC(=O)C(=O)C2NC(=S)NC2=O)c(OC)c1 (configuration not stated)
inactive: NCI-H226 > 100 µM | RPMI-8226 > 100 µM | HCC 2998 > 100 µM | SK-MEL-2 > 100 µM | HOP-62 > 100 µM | OVCAR-8 > 100 µM | SW-620 > 100 µM | NCI-H23 > 100 µM | UO-31 > 100 µM | COLO 205 > 100 µM | HL-60 > 100 µM | LOX IMVI > 100 µM | ACHN > 100 µM | SF-539 > 100 µM

CCCCCCCCCCNC(=S)OCCCC
inactive: RPMI-8226 17.1 µM | HCC 2998 24.6 µM | SK-MEL-2 12.8 µM | HOP-62 27.2 µM | OVCAR-8 33.3 µM | SW-620 19.2 µM | NCI-H23 23.1 µM | UO-31 23.5 µM | HL-60 14.3 µM | NCI-H522 18.6 µM | LOX IMVI 15.9 µM | ACHN 28.1 µM | SF-539 21.7 µM

CN(C)C(=S)/N=c1\ss/c(=N/c2ccccc2)n1C
inactive: NCI-H226 > 100 µM | RPMI-8226 > 100 µM | HCC 2998 > 100 µM | SK-MEL-2 > 100 µM | HOP-62 48.1 µM | OVCAR-8 73.6 µM | SW-620 > 100 µM | NCI-H23 > 100 µM | UO-31 > 100 µM | HL-60 > 100 µM | LOX IMVI > 100 µM | ACHN > 100 µM | SF-539 22.7 µM

CC(=O)Oc1cc(C)c2c(c1OC(C)=O)CC1(O2)[C@@H](C)CCC2[C@@]3(C)CC[C@H](OC(C)=O)C(C)(C)C3CC[C@]21C (some centres not stated)
inactive: NCI-H226 11.4 µM | RPMI-8226 3.83 µM | HCC 2998 5.42 µM | HOP-62 2.65 µM | OVCAR-8 3.01 µM | SW-620 2.82 µM | NCI-H23 2.19 µM | UO-31 1.99 µM | COLO 205 1.63 µM | LOX IMVI 4.24 µM | ACHN 1.67 µM | SF-539 2.81 µM

O=[N+]([O-])c1ccc(OCCNc2cccc3ccccc23)cc1
inactive: NCI-H226 > 100 µM | RPMI-8226 24.7 µM | HCC 2998 64.6 µM | SK-MEL-2 > 100 µM | HOP-62 > 100 µM | OVCAR-8 65.3 µM | SW-620 57.1 µM | NCI-H23 30.6 µM | UO-31 92.9 µM | COLO 205 > 100 µM | NCI-H522 > 100 µM | ACHN > 100 µM | SF-539 > 100 µM

C[Si](C)(C)OC1(C#N)C2C3CC4C2C(=O)C2C4C3C21 (configuration not stated)
inactive: NCI-H226 > 100 µM | RPMI-8226 > 100 µM | HCC 2998 > 100 µM | SK-MEL-2 > 100 µM | HOP-62 > 100 µM | OVCAR-8 > 100 µM | SW-620 > 100 µM | UO-31 > 100 µM | COLO 205 > 100 µM | HL-60 > 100 µM | ACHN > 100 µM | SF-539 > 100 µM

N#C/N=C(\NCCc1c[nH]c2ccccc12)NCc1ccccc1
inactive: NCI-H226 34.4 µM | RPMI-8226 42.6 µM | HCC 2998 32.5 µM | HOP-62 > 100 µM | OVCAR-8 > 100 µM | SW-620 > 100 µM | NCI-H23 > 100 µM | UO-31 20.5 µM | COLO 205 61 µM | HL-60 27.5 µM | LOX IMVI 75.9 µM | ACHN 25.4 µM | SF-539 > 100 µM

CSC1(C)CC2C(CC1N1CCOCC1)C2(C)C (configuration not stated)
inactive: NCI-H226 > 100 µM | RPMI-8226 > 100 µM | HCC 2998 > 100 µM | SK-MEL-2 > 100 µM | OVCAR-8 > 100 µM | NCI-H23 > 100 µM | UO-31 > 100 µM | COLO 205 > 100 µM | HL-60 > 100 µM | ACHN > 100 µM | SF-539 > 100 µM

O=c1c(O)cccn1C1OC(CO)C(O)C1O (configuration not stated)
inactive: NCI-H226 > 100 µM | RPMI-8226 > 100 µM | HCC 2998 > 100 µM | SK-MEL-2 > 100 µM | OVCAR-8 > 100 µM | NCI-H23 > 100 µM | UO-31 > 100 µM | COLO 205 > 100 µM | NCI-H522 > 100 µM | LOX IMVI > 100 µM | ACHN > 100 µM
